# Results reported in patent publication US8119589B2, “Modulation of CD4+ T cell responses by a tick saliva protein, Salp15 and polypeptides derived therefrom” (University of North Carolina at Charlotte, priority 2004, dated 2012).
# Key:
# [1] = tested on: CD4+ T cells from DO11.10 transgenic mice; test: IL-2 production by DO11.10 transgenic CD4+ T cells activated with ovalbumin and APCs; assay type: cell-based, mouse; details: 0.5, 5.0 and 50 μg/mL Salp15; ovalbumin; 72 hrs
# Method: T-cells from CD4-deficient and B6 mice (The Jackson Laboratory, Bar Harbor, Me., U.S.A.) were purified by negative selection and activated for 72 hrs using 5 μg/ml of plate bound anti-CD3 and 1 μg/ml of anti-CD28 in the presence or absence of 50 μg/mL of Salp15. DO11.10 transgenic mouse (The Jackson Laboratory) CD4^+ T cells were purified by negative selection as before and incubated in the presence of 106/mL of syngeneic mitomycin C-treated (50 μg/ml for 40 min at 37° C.) antigen presenting cells (APCs) with 10 μg/mL of ovalbumin in the presence of 0.5, 5.0 and 50 μg/mL of Salp15 for 72 hrs. The supernatants were then collected and IL-2 measured by capture ELISA following the manufacturer's instruction (BD Biosciences Pharmingen).
# [2] = target: T1, sCD4 (Homo sapiens, UniProt P01730); test: Microtiter binding of sCD4-HRP to plate-bound Salp15 and synthetic peptides; details: plate-bound Salp15 pre-treated with 10 mM DTT
# T1 construct: the extracellular four domains of CD4 (sCD4); purchased Research Diagnostics Inc., Flanders, N.J., U.S.A
# Method: Purified sCD4 was coated overnight at 4° C. at the indicated concentrations in 0.1M sodium carbonate buffer (pH 9.5) in 96 well plates. Equimolar amounts of lysozyme were used as a non-specific control. The wells were washed, blocked with 10% FCS/PBS for 1 hr at R.T., and incubated with Salp15 (0.4 μM) for 2 hr at 37° C. Salp15 binding was detected by incubation with horseradish peroxidase (HRP)-conjugated anti-His antibody for 1 hr followed by microwell peroxidase substrate (KPL). The reaction was stopped by adding TMB stop solution (KPL). Chemically synthesized overlapping peptides of Salp15 were purchased from GenScript Corporation (Piscataway, N.J., U.S.A). To study the binding of Salp15 and peptides to sCD4, Salp15 (5 μg) and different peptides (0.5 μg) were coated. The wells were washed and blocked prior to incubation with sCD4-HRP (Research Diagnostics Inc., Flanders, N.J., U.S.A.). For competition assays, indicated concentrations of Salp15 or P11 were added to sCD4-HRP and incubated with plate bound P11 (0.1 μg). To estimate the effect of dithiothreitol (DTT) treatment of Salp15 on binding to sCD4, 0.5 μM Salp15 was treated with 10 mM DTT overnight and immobilized onto microtiter plate followed by blocking and incubation with sCD4-HRP.
# Dissociation constants were determined by non-linear curve fit. The results are expressed as the mean±S.E. of 3 to 5 individual experiments.
# [3] = tested on: R-EAE in SJL/J mice; test: Relapsing-EAE model in PLP139-151 immunized SJL mice; assay type: in vivo, mouse
# Method: SJL/J mice in groups of 18 are injected i.p. with 200 μg of PLP peptide 139-151 (HSLGKWLGHPDKF; SEQ ID NO: 15) (Research Genetics, Huntsville, Ala., U.S.A.). Please note that the original Cysteine has been substituted by serine for stability purposes. […] One group of mice receives daily injections of 50 μg of recombinant Salp15 produced in a Drosophila expression system, starting day 10 after immunization. This regime permits an efficient in vivo activation of PLP139-151-specific CD4^+ T cell activation. Since Salp15 has no effect on effector CD4^+ T cells (Anguita et al., 2002.), its function is expected to be circumscribed to the activation of neoreactive CD4^+ T cells. […]
# At days 12 (including the 3 control mice treated with Salp15 over the course of the immunization), 14, 17, 20, 30 and 60 post-infection, 3 mice from each group are sacrificed and analyzed as follows: splenic CD4^+ T cells are purified by negative selection using biotinylated antibodies against CD8a, Ly6G, Mac-I, B220, class II (I-A^k and I-E^k) and panNK molecules (BD Biosciences Pharmingen, San Jose, Calif., U.S.A.), followed by incubation with Avidin bound to magnetic microbeads and passage through a magnetic column (Miltenyi Biotec, Auburn, Calif., U.S.A.). […]
# Peripheral responses to relapsing epitopes are assessed by the analysis of delayed type hypersensitivity (DTH). […]
substance,measurement,setting,value
"Salp15: secreted salivary protein from Ixodes scapularis, SEQ ID NO: 2; recombinant His-tagged, produced in Drosophila S2 cells",Inhibition of IL-2 production,[1],dose dependent manner
same,CD4 binding after DTT pre-treatment compared to control Salp15,[2],equivalent binding levels
same,Activation of CD4+ T cells in response to new epitopes (epitope spreading),[3]; daily 50 μg Salp15 from day 10 after immunization,lowered activation
same,Degree of demyelination,[3]; histology of brains and spinal cords,lower degree of demyelination
